# Assay results from patent US20030166703A1, “Method of treatment” (priority 2000, published 2003).
# Test system: male Lister Hooded rats
# Assay: Rat Conditioned Emotional Response (CER) Model of Anxiety
# Format: in vivo
# Conditions: 10.0 mg/kg po, 40 min pre-test, hydrochloride; for Suppression Ratio (± SEM): SR 0 = complete suppression, 0.5 = absence of fear; for Rate of responding per minute ±SEM “Dur” period / Rate of responding per minute ±SEM “Pre” period: collapsed across two test trials
# Description: Sixty male Lister Hooded rats with a mean free-feeding weight of 472 g were used. Rats were housed in cages of four and were fed a restricted diet designed to maintain rats at 85% of their free-feeding body weight. A 12:12 light/dark cycle was in effect in the colony room and the rats were trained and tested during the light part of the cycle.
# These chambers were housed in outer sound and light attenuating shells equipped with a ventilation fan which also helped to mask external noise. A single operant lever was positioned on the left side of the front panel of the operant chamber, approximately 2 cm above the grid floor. Coulbourn animal test cage grid floor shockers (E13-14) were used to deliver shock (0.4 mA, 0.5 s) to the grid floors (model E-10-10SF). […] A houselight (4.0 mA, 28V) was positioned on the front wall of the chamber, above the food magazine, approximately 1.0 cm below the ceiling.
# Once the rats had been placed on a restricted feeding regime, magazine training began. On each of the first four days of training each rat received a 30 minute session of magazine training during which pellets were delivered on a variable interval (VI) 30 s schedule. […] These sessions lasted until either 30 minutes expired or 30 food pellets were delivered. […] On the VI 90 s schedule pellets could be earned by pressing the lever, on average, once every 90 s. The houselight was off throughout all of the training sessions.
# CER training sessions were approximately 60 minutes long and usually conducted on 5 days per week. During these sessions, food pellets continued to be available on an VI 90 s schedule as before. However, the rats were now presented with two two-minute long periods of houselight illumination. The first light presentation occurred approximately 20 minutes after the start of the session (range 15-25 minutes) and the second light presentation occurred approximately 20 minutes after the first light presentation (range 15-25 minutes). Light presentations were occasionally followed by a 0.5 second 0.4 mA footshock. In a given session, footshock could follow neither, one, or both of the light presentations. On average rats would receive one shock presentation per session. The rate of lever-pressing during each of the light presentations (the ‘during’ or ‘dur’ period) and the rate of lever-pressing in the two minute interval preceding each light presentation (the ‘pre’ period) was recorded.
# Once a reliable SR was observed, occasional test sessions occurred. Test sessions were identical to training session except that footshock was never delivered following the first light presentation. Tests occurred no more frequently than once per week and a baseline training session was always carried out before each test session.
# The data were analysed with a mixed within-subject (trials) and between-subjects (drug treatment) analysis of variance (ANOVA). The ANOVA was conducted separately on the pre and during light response rates and on the suppression ratios. Significant interactions were followed by one-way analysis of variance on the data collected for each trial. Significant group effects were analysed using post-hoc Dunnett t-tests.
smiles,measurement,setting,value
"CNC1=Nc2ccc(Cl)cc2C(c2ccccc2)=[N+]([O-])C1.Cl [Chlordiazepoxide, chlordiazepoxide hydrochloride]",Suppression Ratio (± SEM),,0.37 ± 0.05
same,Suppression Ratio (± SEM),listed as CDP,significant increase in SR
same,Rate of responding per minute ±SEM “Dur” period,,13.7 ± 3.1 per minute
same,Rate of responding per minute ±SEM “Pre” period,,21.8 ± 2.9 per minute
same,Rate of responding per minute ±SEM “Dur” period,listed as CDP,significant increase in dur responding
same,Rate of responding per minute ±SEM “Pre” period,listed as chlordiazepoxide,significant increase in pre responding
